Laboratory results taken from patent US20200392107A1, “CYCLIC AMINE DERIVATIVE AND MEDICAL USE THEREOF” (Toray Industries, Inc., priority 2018, published 2020).

Columns and labels:
[1] = tested on: IL-17 production in mouse splenocytes; assay: Suppressive effect on IL-17 production by IL-23 stimulation in mouse splenocytes; format: cell-based; details: Splenocyte, 72 h, at 5 μmol/L of the test compound, human IL-23 10 ng/mL, cultured 3 days, read-out: IL-17 production inhibition rate (%)
Description: Using mouse splenocytes, the suppressive effect of the cyclic amine derivative (I) or a pharmacologically acceptable salt thereof on IL-17 production by IL-23 stimulation was evaluated by a partially modified method mentioned in The Journal of Biological Chemistry, 2003, Vol. 278, No. 3, p. 1910-1914.
A single cell suspension was prepared from the spleen of C57BL/6J mice (male or female, 6 to 30 weeks old) (Charles River Laboratories Japan, Inc. or CLEA Japan, Inc.) and splenocytes were prepared using Histopaque-1083 (Sigma-Aldrich Japan). The culture medium was used by adding 10% FBS (Gibco), 50 U/mL of penicillin-50 μg/mL of streptomycin (Gibco), 50 μmol/L of 2-mercaptoethanol (Gibco), and 100 U/mL of human IL-2 (Cell Science & Technology Institute, Inc.) to RPMI1640 medium (Gibco). A test compound was dissolved in DMSO and then diluted with the culture medium to have a final concentration of DMSO of 0.1% before use. Splenocytes (3×10^5 cells/well) prepared in the culture medium were seeded in wells of a 96-well flat-bottom plate (Corning Incorporated), the test compound and 10 ng/mL of human IL-23 (R & D systems, Inc.) were added thereto, and the cells were cultured at 37° C. under 5% CO2 for 3 days. A well without addition of human IL-23 and without addition of the test compound and a well with addition of human IL-23 and without addition of the test compound were prepared. After completion of the culture, the culture supernatant was collected and the IL-17 production amount in the supernatant was determined by ELISA method (R & D systems, Inc.).
The IL-17 production inhibition rate (%) was calculated from Formula (2).
IL-17 production inhibition rate (%)=(1−((IL-17 production amount with addition of IL-23 and with addition of the test compound)−(IL-17 production amount without addition of IL-23 and without addition of the test compound))/((IL-17 production amount with addition of IL-23 and without addition of the test compound)−(IL-17 production amount without addition of IL-23 and without addition of the test compound)))×100 (2).

[2] = tested on: mouse alopecia areata model; assay: Mouse alopecia areata model; format: in vivo; details: 10 mg/kg orally once daily for 42 days, Day 49 to Day 90; C3H/HeJ mice
Description: The effect of the cyclic amine derivative (I) or a pharmacologically acceptable salt thereof in a mouse alopecia areata model was evaluated using increase in the hair loss score as an index of worsening of symptoms. The mouse alopecia areata model was prepared by a partially modified method by Wang et al. (Journal of Investigative Dermatology, 2015, vol. 135, p. 2530-2532).
Female C3H/HeJ mice (CLEA Japan, Inc.) with spontaneous hair loss in 70% or more of the body surface were used as donor mice. The donor mice were euthanized by cervical dislocation, and then the groin, axilla, and auricular lymph nodes were aseptically removed. […]
On Day 49, photographs of the back and the abdomen of the mice were taken under isoflurane anesthesia. The status of hair loss was evaluated by a partially modified method by Alli et al. (Journal of Immunology, 2012, vol. 188, p. 477-486). In other words, the ratio of the area of hair loss site to the body surface area was scored in accordance with the criteria mentioned in Table 4, and regarded as the hair loss score. Specifically, the hair loss score was determined based on the numerical value of the ratio calculated from Formula (4): […]
Grouping was performed using the mouse hair loss score calculated on Day 49 as an index (the hair loss score on Day 49 (mean±standard error): 3.6±0.66). […]

Question: `CC(=O)N1CCCC[C@@H]1C(=O)Nc1cc(Cl)c2c(c1)CCN2C[C@H]1CC[C@H](C(F)(F)F)CC1` [Example 9, (R)-1-acetyl-N-(7-chloro-1-((trans-4-(trifluoromethyl)cyclo-hexyl)methyl)indolin-5-yl)piperidine-2-carboxamide] was tested. Which inhibition at 5 µM [1] did it give?
Answer: 99.5%

Question: Which “increase in the hair loss score (Day 91)” value [2] does the source give for `CC(=O)N1CCCC[C@@H]1C(=O)Nc1cc(Cl)c2c(c1)CCN2Cc1ccc(C(F)(F)F)cc1` [Example 4, (R)-1-acetyl-N-(7-chloro-1-(4-(trifluoromethyl)benzyl)indolin-5-yl)piperidine-2-carboxamide] here?
Answer: suppressed

Question: What about the inhibition at 5 µM [1] of the same molecule?
Answer: 99.9%

Question: `CC(=O)N1CCCC[C@@H]1C(=O)Nc1cc(Cl)c2c(c1)CCCN2Cc1ccc(C(F)(F)F)cc1` [Example 1, (R)-1-acetyl-N-(8-chloro-1-(4-(trifluoromethyl)benzyl)-1,2,3,4-tetrahydroquinolin-6-yl)piperidine-2-carboxamide] was tested. Which inhibition at 5 µM [1] did it give?
Answer: 98%
